Molecular target: T1, recombinant human ALX receptor (Homo sapiens, UniProt P25090)
T1 construct: expressed in transfected cells; host or cells: HEK293
T1 sequence (P25090 1-351): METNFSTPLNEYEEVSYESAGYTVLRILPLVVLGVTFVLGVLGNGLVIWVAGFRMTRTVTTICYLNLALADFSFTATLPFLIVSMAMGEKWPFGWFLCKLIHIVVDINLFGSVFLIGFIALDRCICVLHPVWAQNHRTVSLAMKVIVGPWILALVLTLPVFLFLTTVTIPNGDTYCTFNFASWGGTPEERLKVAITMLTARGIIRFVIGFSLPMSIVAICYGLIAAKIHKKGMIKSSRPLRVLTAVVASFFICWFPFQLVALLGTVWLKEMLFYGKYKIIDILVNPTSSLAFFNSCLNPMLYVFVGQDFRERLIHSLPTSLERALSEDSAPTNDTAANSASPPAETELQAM
Assay: Intracellular calcium measurements (FLIPR), ALX receptor agonistic activity
Assay type: cell-based
Conditions: HEK293-hALXR-Gα16 cells; normalized to WKYMVm 10 nM; read-out: EC50 (agonistic activity with respect to the ALX receptor)
Experimental: The ALX receptor agonistic activity of the compounds of formula (I) is determined in accordance with the following experimental method.
Cells expressing recombinant human ALX receptor and the G-protein Gα16 (HEK293-hALXR-Gα16) were grown to 80% confluency in Growing Medium (GM). Cells were detached from culture dishes with a cell dissociation buffer (Invitrogen, 13151-014), and collected by centrifugation at 1′000 rpm at rt for 5 min in Assay Buffer (AB) (equal parts of Hank's BSS (Gibco, 14065-049) and DMEM without Phenol Red (Gibco, 11880-028)). After 60 min incubation at 37° C. under 5% CO2 in AB supplemented with 1 μM Fluo-4 (AM) (Invitrogen, F14202) and 20 mM HEPES (Gibco, 15630-056), the cells were washed and resuspended in AB. They were then seeded onto 384-well FLIPR assay plates (Greiner, 781091) at 50,000 cells in 70 μl per well and sedimented by centrifugation at 1,000 rpm for 1 min. Stock solutions of test compounds were made up at a concentration of 10 mM in DMSO, and serially diluted in AB to concentrations required for activation dose response curves. WKYMVm (Phoenix Peptides) was used as a reference agonist. […] Changes in fluorescence were monitored before and after the addition of test compounds at lex=488 nm and lem=540 nm. […]

`Cc1ccc(C2(NC(=O)C3C(C(=O)NCCCCN4CCCC4)C4CCC3C43CC3)CC2)cc1` [Example 1, (5R)-N^5-(1-(p-tolyl)cyclopropyl)-(6R)-N^6-(4-(pyrrolidino)butyl)-(4S,7R)-[4,7-ethylene-spiro[2.4]heptane]-5,6-dicarboxamide] was tested, and the EC50 was 4 nM.

From patent US9284288B2, “1-(p-tolyl) cyclopropyl substituted bridged spiro[2.4]heptane derivatives as ALX receptor agonists” (Actelion Pharmaceuticals Ltd., priority 2012, dated 2016)
